According to patent US20230069963A1, “PYRAZOLO[1,5-A]PYRIMIDINE MACROCYCLIC COMPOUND” (priority 2018, published 2023):
Where a name gives a salt, the structure may show the parent alone.

System: RSV ATCC VR-1540 (A2)
Assay: microbe, parasite or virus in culture
Type: cell-based
Details: human respiratory syncytial virus, HEp-2, 96 h; Hep2 cells, incubated for 4 days, CPE detected with XTT assay (absorbance 450 nm); read-out: EC50 (nmol/L) against RSV A2 strain

Going from `CCC1c2cc3nc(N4CC[C@H](N)C4)cc(n3n2)N(C)CCCCOc2ccccc2C(=O)N1C` (stereo partly drawn) [Example 213, (17S)-3-[(3S)-3-aminopyrrolidin-1-yl]-17-ethyl-5,16-dimethyl-6,7,8,9,16,17-hexahydro-5H,15H-18,1-(metheno)pyrimido[6,1-g][1,6,8,9,12]benzoxatetraazacyclopentadecin-S5-one] to `CC[C@H]1c2cc3nc(N4CC[C@H](N)C4)cc(n3n2)N(C)CCCOc2ccc(C)cc2C(=O)N1C` [Example 238, (16S)-3-[(3S)-3-aminopyrrolidin-1-yl]-16-ethyl-5,12,15-trimethyl-5,6,7,8,15,16-hexahydro-14H-17,1-(metheno)pyrimido[6,1-f][1,5,7,8,11]benzoxatetraazacyclotetradecin-14-one], the EC50 rises from 7.81 nmol/L to 28 nmol/L. The first is the more potent here.

Compared with `CC[C@H]1c2cc3nc(N4CC[C@H](N)C4)cc(n3n2)N(C)CCCCN(C)c2ccc(C)cc2C(=O)N1C` [Example 218, (17S)-3-[(3S)-3-aminopyrrolidin-1-yl]-17-ethyl-5,10,13,16-tetramethyl-5,6,7,8,9,10,16,17-octahydro-15H-18,1-(metheno)pyrimido[6,1-g][1,6,8,9,12]benzopentaazacyclopentadecin-15-one], `CCc1ccc2c(c1)C(=O)N(C)[C@@H](CC)c1cc3nc(N4CC[C@H](N)C4)cc(n3n1)N(C)CCCS(=O)(=O)N2` [Example 303, (17S)-3-[(3S)-3-aminopyrrolidin-1-yl]-13,17-diethyl-5,16-dimethyl-7,8,16,17-tetrahydro-5H-18,1-(metheno)-9λ^6-pyrimido[6,1-g][2,1,6,8,9,12]benzothiapentaazacyclopentadecine-9,9,15 (6H,10H)-trione] is higher in EC50: 9.8 nmol/L for the first, 10.5 nmol/L for the second. The first is the more potent here.

Going from `CC[C@H]1c2cc3nc(OC)c(C)c(n3n2)N(C)CCCCNc2ccc(C)cc2C(=O)N1C` [Example 222a, (17S)-17-ethyl-3-methoxy-4,5,13,16-tetramethyl-5,6,7,8,9,10,16,17-octahydro-15H-18,1-(metheno)pyrimido[6,1-g][1,6,8,9,12]benzopentaazacyclopentadecin-15-one] to `CC[C@H]1c2cc3nc(N4CC[C@H](N)C4)c(C)c(n3n2)N(C)CCCCNc2ccc(C)cc2C(=O)N1C` [Example 223, (17S)-3-[(3S)-3-aminopyrrolidin-1-yl]-17-ethyl-4,5,13,16-tetramethyl-5,6,7,8,9,10,16,17-octahydro-15H-18,1-(metheno)pyrimido[6,1-g][1,6,8,9,12]benzopentaazacyclopentadecin-15-one], the EC50 falls from 7.17 nmol/L to 1.34 nmol/L. The second is the more potent here.

First: CC[C@H]1c2cc3nc(N4CC[C@H](N)C4)c(C)c(n3n2)N(C)CCCCCOc2ccccc2C(=O)N1C [Example 233, (18S)-3-[(3S)-3-aminopyrrolidin-1-yl]-18-ethyl-4,5,17-trimethyl-5,6,7,8,9,10,17,18-octahydro-16H-19,1-(metheno)pyrimido[6,1-h][1,7,9,10,13]benzoxatetraazacyclohexadecin-16-one]
Second: CC[C@H]1c2cc3nc(NCC(C)(C)N)c(C)c(n3n2)N(C)CCCCCOc2ccccc2C(=O)N1C [Example 234, (18S)-3-[(2-amino-2-methylpropyl)amino]-18-ethyl-4,5,17-trimethyl-5,6,7,8,9,10,17,18-octahydro-16H-19,1-(metheno)pyrimido[6,1-h][1,7,9,10,13]benzoxatetraazacyclohexadecin-16-one]
The EC50 of the first is higher: 39.5 nmol/L for the first, 6.77 nmol/L for the second.

Compared with `Cc1ccc2c(c1)C(=O)N1CCCC[C@H]1c1cc3nc(NCCN)cc(n3n1)N(C)CCCCO2` [Example 245, (23aS)-18-[(2-aminoethyl)amino]-8,16-dimethyl-1,3,4,13,14,15,16,23a-octahydro-2H,6H,12H-23,20-(metheno)pyrido[2,1-k]pyrimido[6,1-g][1,6,8,9,12]benzoxatetraazacyclopentadecin-6-one hydrochloride], `Cc1c(NCCN)nc2cc3nn2c1NCCCCOc1ccc(Cl)cc1C(=O)N1CCCC[C@@H]31` [Example 285, (23aS)-18-[(2-aminoethyl)amino]-8-chloro-17-methyl-1,3,4,13,14,15,16,23a-octahydro-2H,6 H,12H-23,20-(metheno)pyrido[2,1-k]pyrimido[6,1-g][1,6,8,9,12]benzoxatetraazacyclopentadecin-6-one hydrochloride] is higher in EC50: 4.71 nmol/L for the first, 11.9 nmol/L for the second. The first is the more potent here.

Going from `CN1CCCCOc2cccc(F)c2C(=O)N2CCCCC2c2cc3nc(N4CCC(N)C4)cc1n3n2` [Example 249, (23aS)-18-[(3S)-3-aminopyrrolidin-1-yl]-7-fluoro-16-methyl-1,3,4,13,14,15,16,23a-octahydro-2H,6H,12H-23,20-(metheno)pyrido[2,1-k]pyrimido[6,1-g][1,6,8,9,12]benzoxatectraazacyclopentadecin-6-one] to `CN1CCCCOc2ccc(Cl)cc2C(=O)N2CCCCC2c2cc3nc(N4CC[C@H](N)C4)cc1n3n2` (stereo partly drawn) [Example 254, (23aS)-18-[(3S)-3-aminopyrrolidin-1-yl]-8-chloro-16-methyl-1,3,4,13,14,15,16,23a-octahydro-2H,6H,12H-23,20-(metheno)pyrido[2,1-k]pyrimido[6,1-g][1,6,8,9,12]benzoxatetraazacyclopentadecin-6-one], the EC50 rises from 2.7 nmol/L to 3.28 nmol/L. The first is the more potent here.

First: CN1CCCCCc2ccc(F)cc2C(=O)N2CCCC[C@H]2c2cc3nc(N4CCC4)cc1n3n2 [Example 279, (23aS)-18-(azetidin-1-yl)-8-fluoro-16-methyl-1,3,4,11,12,13,14,15,16,23a-decahydro-2H,6H-23,20-(metheno)pyrido[1,2-b]pyrimido[1,6-f][2,5,6,8]benzotetraazacyclopentadecin-6-one]
Second: CCN1CCCS(=O)(=O)Nc2ccc(F)cc2C(=O)N2CCCC[C@H]2c2cc3nc(N4CCC4)cc1n3n2 [Example 318, (23aS)-18-(azetidin-1-yl)-16-ethyl-8-fluoro-1,3,4,13,14,15,16,23a-octahydro-2H,6H-23,20-(metheno)-12λ^6-pyrido[2,1-k]pyrimido[6,1-g][2,1,6,8,9,12]benzothiapentaazacyclopentadecine-6,12,12(11H)-trione]
The EC50 of the first is lower: 14.5 nmol/L for the first, 22.7 nmol/L for the second. The first is the more potent here.

Going from `Cc1c(N2CCC(N)C2)nc2cc3nn2c1NCCCCOc1ccc(Cl)cc1C(=O)N1CCCCC31` [Example 283, (23aS)-18-[(3S)-3-aminopyrrolidin-1-yl]-8-chloro-17-methyl-1,3,4,13,14,15,16,23a-octahydro-2H,6H,12H-23,20-(metheno)pyrido[2,1-k]pyrimido[6,1-g][1,6,8,9,12]benzoxatetraazacyclopentadecin-6-one] to `Cc1c(N2CCC(N)C2)nc2cc3nn2c1NCCOCCOc1ccc(Cl)cc1C(=O)N1CCCCC31` [Example 299, (18aS)-13-[(3S)-3-aminopyrrolidin-1-yl]-2-chloro-12-methyl-6,7,10,11,19,20,21,22-octahydro-9H,18aH,24H-18,15-(metheno)pyrido[2,1-l]pyrimido[6,1-h][1,4,7,9,10,13]benzodioxatetraazacyclohexadecin-24-one], the EC50 rises from 6.28 nmol/L to 9.69 nmol/L.

Compared with `Cc1c(N2CCC2)nc2cc3nn2c1NCCCCOc1ccc(Cl)cc1C(=O)N1CCCC[C@@H]31` [Example 284, (23aS)-18-(azetidin-1-yl)-8-chloro-17-methyl-1,3,4,13,14,15,16,23a-octahydro-2H,6H,12H-23,20-(metheno)pyrido[2,1-k]pyrimido[6,1-g][1,6,8,9,12]benzoxatetraazacyclopentadecin-6-one], `Cc1c(N2CCC(N)C2)nc2cc3nn2c1N(C)CCCCOc1ccc(Cl)cc1C(=O)N1CCCCC31` [Example 286, (23aS)-18-[(3S)-3-aminopyrrolidin-1-yl]-8-chloro-16,17-dimethyl-1,3,4,13,14,15,16,23a-octahydro-2H,6H,12H-23,20-(metheno)pyrido[2,1-k]pyrimido[6,1-g][1,6,8,9,12]benzoxatetraazacyclopentadecin-6-one] is lower in EC50: 22.2 nmol/L for the first, 20.8 nmol/L for the second. The second is the more potent here.

Compared with `CN1CCOCCOc2ccc(Cl)cc2C(=O)N2CCCCC2c2cc3nc(N4CCC(N)C4)cc1n3n2` [Example 297, (18aS)-13-[(3S)-3-aminopyrrolidin-1-yl]-2-chloro-11-methyl-6,7,10,11,19,20,21,22-octahydro-9H,18aH,24H-18,15-(metheno)pyrido[2,1-l]pyrimido[6,1-h][1,4,7,9,10,13]benzodioxatetraazacyclohexadecin-24-one], `Cc1nnc2n1CCN(C)c1cc(N3CC(N)C3)nc3cc(nn13)[C@@H]1CCCCN1C(=O)c1cc(Cl)ccc1OC2` [Example 328, (20aS)-15-(3-aminoazetidin-1-yl)-2-chloro-9,13-dimethyl-12,13,21,22,23,24-hexahydro-6H, 11H,20aH,26H-20,17-(metheno)pyrido[2,1-l]pyrimido[6,1-h][1,2,4]triazolo[3,4-c][1,4,7,9,10,13]benzoxapentaazacyclohexadecin-26-one] is higher in EC50: 8.74 nmol/L for the first, 9.48 nmol/L for the second.

First: Cc1c(NCCN)nc2cc3nn2c1N(C)CCCS(=O)(=O)Nc1ccc(Cl)cc1C(=O)N1CCCC[C@@H]31 [Example 327, (23aS)-18-[(2-aminoethyl)amino]-8-chloro-16,17-dimethyl-1,3,4,13,14,15,16,23a-octahydro-2H,6H-23,20-(metheno)-12λ^6-pyrido[2,1-k]pyrimido[6,1-g][2,1,6,8,9,12]benzothiapentaazacyclopentadecine-6,12,12(11H)-trione]
Second: Cc1nnc2n1CCN(C)c1cc(N3CCC3)nc3cc(nn13)[C@@H]1CCCCN1C(=O)c1cc(Cl)ccc1OC2 [Example 329, (20aS)-15-(azetidin-1-yl)-2-chloro-9,13-dimethyl-12,13,21,22,23,24-hexahydro-6H,11H,20aH,26H-20,17-(metheno)pyrido[2,1-l]pyrimido[6,1-h][1,2,4]triazolo[3,4-c][1,4,7,9,10,13]benzoxapentaazacyclohexadecin-26-one]
The EC50 of the first is higher: 1.72 nmol/L for the first, 1.61 nmol/L for the second.

In the case of `CN1CCc2cn(nn2)Cc2ccc(Cl)cc2C(=O)N2CCCC[C@H]2c2cc3nc(N4CC(N)C4)cc1n3n2` [Example 330, (19aS)-14-(3-aminoazetidin-1-yl)-2-chloro-12-methyl-11,12,20,21,22,23-hexahydro-10H,19aH-6,9:19,16-di(metheno)pyrido[2,1-m]pyrimido[6,1-i][2,3,4,8,10,11,14]benzoheptaazacycloheptadecin-25(5H)-one], the EC50 is reported as 19.8 nmol/L.
